Measured values published in patent publication US20230192705A1, “SHP2 INHIBITORS, COMPOSITIONS AND USES THEREOF” (Betta Pharmaceuticals Co., Ltd, priority 2020, published 2023).

Target: T1, SHP2 (Homo sapiens, UniProt Q06124)
T1 sequence (Q06124 1-593): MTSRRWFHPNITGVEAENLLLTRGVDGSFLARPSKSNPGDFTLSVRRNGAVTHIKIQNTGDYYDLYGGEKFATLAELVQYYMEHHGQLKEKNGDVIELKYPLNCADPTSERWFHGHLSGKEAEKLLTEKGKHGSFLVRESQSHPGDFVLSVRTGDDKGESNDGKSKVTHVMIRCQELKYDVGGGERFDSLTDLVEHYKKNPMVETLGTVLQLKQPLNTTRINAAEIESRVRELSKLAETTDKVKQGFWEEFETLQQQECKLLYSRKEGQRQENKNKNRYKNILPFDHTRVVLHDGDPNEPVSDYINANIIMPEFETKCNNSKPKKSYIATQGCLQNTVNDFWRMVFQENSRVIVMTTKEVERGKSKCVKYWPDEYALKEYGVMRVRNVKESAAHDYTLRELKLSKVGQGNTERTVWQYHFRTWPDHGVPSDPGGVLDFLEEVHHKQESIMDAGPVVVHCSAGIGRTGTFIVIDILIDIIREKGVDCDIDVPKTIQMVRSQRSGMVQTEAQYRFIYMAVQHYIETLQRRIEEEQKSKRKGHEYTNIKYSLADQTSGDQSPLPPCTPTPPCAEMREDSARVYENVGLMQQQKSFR
Assay: SHP2 allosteric inhibitor enzyme activity assay (DiFMUP fluorescence)
Format: biochemical
Conditions: class symbols
In short: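 SHP2 activated by 0.5 μM IRS1_pY1172(dPEG8)pY1222 peptide, 0.2 ng enzyme per well, 1 h at room temperature with compound (1 μM top, 3-fold series), then DiFMUP substrate 1 h. Buffer: 60 mM HEPES, 75 mM NaCl, 75 mM KCl, 0.05% BRIJ-35, 1 mM EDTA, 5 mM DTT. Fluorescence ex 340/em 450 nm; IC50 by variable-slope fit.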

**Q.** Which IC50 does the source give for `CC1(C)C=C(c2n[nH]c3nc(N4CCC5(CC4)Cc4ccccc4[C@H]5N)[nH]c(=O)c23)c2cnn(C3CC3)c2C1` [Example 152, (S)-6-(1-amino-1,3-dihydrospiro[indene-2,4′-piperidin]-1′-yl)-3-(1-cyclopropyl-6,6-dimethyl-6,7-dihydro-1H-indazol-4-yl)-1,5-dihydro-4H-pyrazolo[3,4-d]pyrimidin-4-one] here?
**A.** 20 to 60 nM

**Q.** For `CC1(C)CC1(c1ccccc1)c1n[nH]c2nc(N3CCC4(CC3)Cc3ccccc3[C@H]4N)[nH]c(=O)c12` (stereo partly drawn) [Example 5, 6-((S)-1-amino-1,3-dihydrospiro[indene-2,4′-piperidin]-1′-yl)-3-(2,2-dimethyl-1-phenylcyclopropyl)-1,5-dihydro-4H-pyrazolo[3,4-d]pyrimidin-4-one], which IC50 is on record?
**A.** > 60 nM

**Q.** How did the IC50 turn out when `N[C@@H]1c2ccccc2CC12CCN(c1nc3[nH]nc(C4(c5cnn(-c6ccccc6)c5)CC4)c3c(=O)[nH]1)CC2` [Example 56, (S)-6-(1-amino-1,3-dihydrospiro[indene-2,4′-piperidin]-1′-yl)-3-(1-(1-phenyl-1H-pyrazol-4-yl)cyclopropyl)-1,5-dihydro-4H-pyrazolo[3,4-d]pyrimidin-4-one] was run?
**A.** 20 to 60 nM

**Q.** Which IC50 does the source give for `C[C@@H]1OCC2(CCN(c3nc4[nH]nc(C5(c6ccc(Cl)cc6Cl)CC5)c4c(=O)[nH]3)CC2)[C@@H]1N` [Example 313, 6-((3S,4S)-4-amino-3-methyl-2-oxa-8-azaspiro[4.5]decan-8-yl)-3-(1-(2,4-dichlorophenyl)cyclopropyl)-1,5-dihydro-4H-pyrazolo[3,4-d]pyrimidin-4-one] here?
**A.** > 60 nM

**Q.** For `N#Cc1nnc(C2(c3n[nH]c4nc(N5CCC6(CC5)Cc5ccccc5[C@H]6N)[nH]c(=O)c34)CC2)s1` [Example 238, (S)-5-(1-(6-(1-amino-1,3-dihydrospiro[indene-2,4′-piperidin]-1′-yl)-4-oxo-4,5-dihydro-1H-pyrazolo[3,4-d]pyrimidin-3-yl)cyclopropyl)-1,3,4-thiadiazole-2-carbonitrile], which IC50 is on record?
**A.** ≤ 20 nM

**Q.** How did the IC50 turn out when `CCOC(=O)Nc1cccc(C2(c3n[nH]c4nc(N5CCC6(CC5)Cc5ccccc5[C@H]6N)[nH]c(=O)c34)CC2)c1` [Example 41, ethyl (S)-(3-(1-(6-(1-amino-1,3-dihydrospiro[indene-2,4′-piperidin]-1′-yl)-4-oxo-4,5-dihydro-1H-pyrazolo[3,4-d]pyrimidin-3-yl)cyclopropyl)phenyl)carbamate] was run?
**A.** ≤ 20 nM

**Q.** With `C[C@@H]1OCC2(CCN(c3nc4[nH]nc(C5(c6ccc(C#N)cc6)CC5)c4c(=O)[nH]3)CC2)[C@@H]1N` [Example 315, 4-(1-(6-((3S,4S)-4-amino-3-methyl-2-oxa-8-azaspiro[4.5]decan-8-yl)-4-oxo-4,5-dihydro-1H-pyrazolo[3,4-d]pyrimidin-3-yl)cyclopropyl)benzonitrile] as the compound, how does the IC50 read?
**A.** 20 to 60 nM

**Q.** `N[C@@H]1c2ccccc2CC12CCN(c1nc3[nH]nc(C4(c5ccnc6ccccc56)CC4)c3c(=O)[nH]1)CC2` [Example 78, (S)-6-(1-amino-1,3-dihydrospiro[indene-2,4′-piperidin]-1′-yl)-3-(1-(quinolin-4-yl)cyclopropyl)-1,5-dihydro-4H-pyrazolo[3,4-d]pyrimidin-4-one] was tested. Which IC50 did it give?
**A.** ≤ 20 nM

**Q.** Which IC50 does the source give for `Cn1ccc(C2(c3n[nH]c4nc(N5CCC6(CC5)Cc5ccccc5[C@H]6N)[nH]c(=O)c34)CC2)c(Cl)c1=O` [Example 73, (S)-6-(1-amino-1,3-dihydrospiro[indene-2,4′-piperidin]-1′-yl)-3-(1-(3-chloro-1-methyl-2-oxo-1,2-dihydropyridin-4-yl)cyclopropyl)-1,5-dihydro-4H-pyrazolo[3,4-d]pyrimidin-4-one] here?
**A.** ≤ 20 nM

**Q.** How did the IC50 turn out when `Cn1cc(-c2cccc(C3(c4n[nH]c5nc(N6CCC7(CC6)Cc6ccccc6[C@H]7N)[nH]c(=O)c45)CC3)c2)cn1` [Example 36, (S)-6-(1-amino-1,3-dihydrospiro[indene-2,4′-piperidin]-1′-yl)-3-(1-(3-(1-methyl-1H-pyrazol-4-yl)phenyl)cyclopropyl)-1,5-dihydro-4H-pyrazolo[3,4-d]pyrimidin-4-one] was run?
**A.** ≤ 20 nM

**Q.** `N[C@@H]1c2ccccc2CC12CCN(c1nc3[nH]nc(C4(c5nn[nH]n5)CC4)c3c(=O)[nH]1)CC2` [Example 246, (S)-3-(1-(2H-tetrazol-5-yl)cyclopropyl)-6-(1-amino-1,3-dihydrospiro[indene-2,4′-piperidin]-1′-yl)-1,5-dihydro-4H-pyrazolo[3,4-d]pyrimidin-4-one] was tested. Which IC50 did it give?
**A.** ≤ 20 nM

**Q.** Which IC50 does the source give for `N[C@@H]1c2ccccc2CC12CCN(c1nc3[nH]nc(C4(c5cnnc(Cl)c5)CC4)c3c(=O)[nH]1)CC2` [Example 70, (S)-6-(1-amino-1,3-dihydrospiro[indene-2,4′-piperidin]-1′-yl)-3-(1-(6-chloropyridazin-4-yl)cyclopropyl)-1,5-dihydro-4H-pyrazolo[3,4-d]pyrimidin-4-one] here?
**A.** ≤ 20 nM

**Q.** `COc1nccc(C2(c3n[nH]c4nc(N5CCC6(CC5)Cc5ccccc5[C@H]6N)[nH]c(=O)c34)CC2)c1Cl` [Example 62, (S)-6-(1-amino-1,3-dihydrospiro[indene-2,4′-piperidin]-1′-yl)-3-(1-(3-chloro-2-methoxypyridin-4-yl)cyclopropyl)-1,5-dihydro-4H-pyrazolo[3,4-d]pyrimidin-4-one] was tested. Which IC50 did it give?
**A.** ≤ 20 nM

**Q.** Which IC50 does the source give for `N[C@@H]1c2ccccc2CC12CCN(c1nc3[nH]nc(C4(c5ccnnc5)CC4)c3c(=O)[nH]1)CC2` [Example 71, (S)-6-(1-amino-1,3-dihydrospiro[indene-2,4′-piperidin]-1′-yl)-3-(1-(pyridazin-4-yl)cyclopropyl)-1,5-dihydro-4H-pyrazolo[3,4-d]pyrimidin-4-one] here?
**A.** ≤ 20 nM

**Q.** With `N[C@@H]1c2ccccc2CC12CCN(c1nc3[nH]nc(C4(c5ccccc5Cl)CC4)c3c(=O)[nH]1)CC2` [Example 12, (S)-6-(1-amino-1,3-dihydrospiro[indene-2,4′-piperidin]-1′-yl)-3-(1-(2-chlorophenyl)cyclopropyl)-1,5-dihydro-4H-pyrazolo[3,4-d]pyrimidin-4-one] as the compound, how does the IC50 read?
**A.** ≤ 20 nM

**Q.** For `N[C@@H]1COCC12CCN(c1nc3[nH]nc(C4(c5nc6ccccc6o5)CC4)c3c(=O)[nH]1)CC2` [Example 282, (S)-6-(4-amino-2-oxa-8-azaspiro[4.5]decan-8-yl)-3-(1-(benzo[d]oxazol-2-yl)cyclopropyl)-1,5-dihydro-4H-pyrazolo[3,4-d]pyrimidin-4-one], which IC50 is on record?
**A.** 20 to 60 nM

**Q.** With `C[C@@H]1OCC2(CCN(c3cnc4c(C5(c6ccccc6)CC5)c[nH]c4n3)CC2)[C@@H]1N` [Example 269, (3S,4S)-3-methyl-8-(7-(1-phenylcyclopropyl)-5H-pyrrolo[2,3-b]pyrazin-3-yl)-2-oxa-8-azaspiro[4.5]decan-4-amine] as the compound, how does the IC50 read?
**A.** > 60 nM

**Q.** Which IC50 does the source give for `N[C@@H]1c2ccccc2CC12CCN(c1nc3[nH]nc(C4(c5ccccc5)CCC4)c3c3nncn13)CC2` [Example 92, (S)-1′-(9-(1-phenylcyclobutyl)-7H-pyrazolo[4,3-e][1,2,4]triazolo[4,3-c]pyrimidin-5-yl)-1,3-dihydrospiro[indene-2,4′-piperidin]-1-amine] here?
**A.** ≤ 20 nM

**Q.** For `N[C@@H]1c2ccccc2CC12CCN(c1nc3[nH]nc(C4(c5ncco5)CC4)c3c(=O)[nH]1)CC2` [Example 243, (S)-6-(1-amino-1,3-dihydrospiro[indene-2,4′-piperidin]-1′-yl)-3-(1-(oxazol-2-yl)cyclopropyl)-1,5-dihydro-4H-pyrazolo[3,4-d]pyrimidin-4-one], which IC50 is on record?
**A.** ≤ 20 nM
